The subject of one assay is human plasma clot. The assay is described as follows: Fibrinolysis of clot formed by thrombin from human plasma (lytic zones / solubilized radioactivity). It counts as biochemical. The protocol:
Fibrinogen containing plasminogen was reconstituted in phosphate buffered saline (PBS), pH 7.4 or in serum to a concentration of 3 mg/ml. Fibrin clots were prepared by the addition of 0.025 NIH units of human thrombin per […] fibrinogen solution. The mixture was decanted onto the lid of a culture dish and incubated for 60 min at room temperature. After clot formation, portions of 10 μl of PBS containing 1 μM scuPA, with or without an equimolar concentration of suPAR, were placed on several parts of the surface of the clot. The clot was incubated for 2 to 3 hr at 37° C., until the appearance of digestion areas on the surface. At that stage the clot was washed several times with PBS and incubated overnight with 0.2° trappan blue. On the following day, the clot was rinsed 4 is times with PBS and photographed The pictures were scanned with a Hoefer GS 300 scanning densitometer. The size of the lytic zones was calculated by the NIH image program. […]
Human fibrinogen (Sigma. St. Louis, Mo.) was radiolabeled with ^125I [Higazi, A A-R. & Abu-Much R. et al. J. Biol. Chem. 270:9472-9477 (1995)]. ^125I-labeled fibrinogen was added to a solution of PBS, pH 7.4, containing either 3 mg/ml fibrinogen and 1 μM glu-plasminogen or plasma. […] For determination of fibrinolysis, plasminogen activating agents (1 μM) or 1376 MAT cells, in a total volume of 10 μl each, were directly added to the center of the clot and after incubation for specific periods, the wells were washed and the radioactivity of the lavage solution was determined by means of a gamma counter. Fibrinolysis was also measured as previously described [Higazi, A A-R., et al. Biochem. J. 300:251-255 (1994)], by addition of 0.4 ml of serum or PBS, containing 25 nM of the plasminogen activator agent (scuPA, scuPA/suPAR complex or tcuPA). […] Fibrinolytic activity was determined by following the release from the ^125I-labeled fibrin clot of labeled soluble degradation products of fibrin and is illustrated in FIGS. 7 and 8.

For assay [1], the system named is bovine fibrinogen clot reconstituted in serum. The assay is described as follows: Fibrinolysis of bovine fibrinogen clot reconstituted in serum. The class given is biochemical. The conditions noted are these: FIG. 5. The protocol: (§1) Fibrinogen containing plasminogen was reconstituted in phosphate buffered saline (PBS), pH 7.4 or in serum to a concentration of 3 mg/ml. Fibrin clots were prepared by the addition of 0.025 NIH units of human thrombin per […] fibrinogen solution. The mixture was decanted onto the lid of a culture dish and incubated for 60 min at room temperature. After clot formation, portions of 10 μl of PBS containing 1 μM scuPA, with or without an equimolar concentration of suPAR, were placed on several parts of the surface of the clot. The clot was incubated for 2 to 3 hr at 37° C., until the appearance of digestion areas on the surface. At that stage the clot was washed several times with PBS and incubated overnight with 0.2° trappan blue. On the following day, the clot was rinsed 4 is times with PBS and photographed The pictures were scanned with a Hoefer GS 300 scanning densitometer. The size of the lytic zones was calculated by the NIH image program.
In an experiment designed to test the possibility that the different effects were related to the source of fibrinogen, the fibrinogen was removed from plasma by clotting with thrombin and removal of the clot by centrifugation to obtain serum. […] The possibility that the stimulatory activity was derived from the anticoagulants present in plasma was considered.

In assay [2] the test system is radiolabeled plasma-derived clot. The assay is described as follows: Lysis of radiolabeled plasma-derived clot covered with serum or PBS containing the plasminogen activator. It counts as biochemical, human. The protocol: (§2) Human fibrinogen (Sigma. St. Louis, Mo.) was radiolabeled with ^125I [Higazi, A A-R. & Abu-Much R. et al. J. Biol. Chem. 270:9472-9477 (1995)]. ^125I-labeled fibrinogen was added to a solution of PBS, pH 7.4, containing either 3 mg/ml fibrinogen and 1 μM glu-plasminogen or plasma. Clots were formed in wells of tissue culture plates with an inner diameter of 16 mm (Costar, Cambridge, Mass.). To initiate the clot formation, 10 μl of a solution containing 2 NIH units of thrombin (Sigma. St. Louis, Mo.) were added to 0.4 ml of fibrinogen solution or to plasma. For determination of fibrinolysis, plasminogen activating agents (1 μM) or 1376 MAT cells, in a total volume of 10 μl each, were directly added to the center of the clot and after incubation for specific periods, the wells were washed and the radioactivity of the lavage solution was determined by means of a gamma counter. Fibrinolysis was also measured as previously described [Higazi, A A-R., et al. Biochem. J. 300:251-255 (1994)], by addition of 0.4 ml of serum or PBS, containing 25 nM of the plasminogen activator agent (scuPA, scuPA/suPAR complex or tcuPA). The plates were incubated at 37° C. in an incubator for the required time (about 2 hours, see legends to the Figures). Aliquots of 25 μl were removed at the specific time point for counting of the solubilized label in a gamma counter. Fibrinolytic activity was determined by following the release from the ^125I-labeled fibrin clot of labeled soluble degradation products of fibrin and is illustrated in FIGS. 7 and 8.

The next assay has as its system human IgG. Nature of the assay: Binding of 125I-suPAR to IgG, precipitation with protein G. The conditions noted are these: for precipitation by protein G from native plasma: 50 nM radiolabeled protein, FIG. 11. The protocol:
Plasma (5 ml) were incubated with 1 ml of IgG (bound to beads, as described) for 2 hr, at 4° C. The beads were precipitated by centrifugation and the plasma was decanted and used for precipitation of radiolabeled suPAR or for formation of clots after addition of thrombin, as described herein before.
(§3) Binding of ^125I-suPAR to IgG was determined by incubation of 50 nM radiolabeled suPAR, 0.1 ml plasma and 0.5 ml of IgG protein, for 2 hr at 4° C. Following incubation, the mixture was centrifugated. The precipitate was washed 4 is times with PBS and the radioactivity incorporated into protein G was determined. Non-specific binding was determined by using plasma that had been depleted of IgG or by measuring the precipitation of irrelevant protein. All experiments were repeated at least three times.

Assay [3] concerns purified bovine fibrinogen clot. Nature of the assay: Fibrinolysis of purified fibrinogen clot, size of lytic zones. The class given is biochemical. On the procedure:
as §1

The subject of assay [4] is radiolabeled fibrinogen-derived clot. Nature of the assay: Lysis of radiolabeled fibrinogen-derived clot covered with serum or PBS containing the plasminogen activator. The class given is biochemical, human. On the procedure:
as §2, with “The plates were incubated at 37° C. in an incubator for the required time (about 2 hours, see legends to the Figures). Aliquots of 25 μl were removed at the specific time point for counting of the solubilized label in a gamma counter.” left out

For a further assay, the target named is PAI-1 (Homo sapiens, UniProt P05121). The conditions noted are these: cited from earlier work.
Assay [5] has as its system radiolabeled fibrinogen-derived clot containing 1 μM glu-plasminogen. Nature of the assay: Fibrinolytic activity of suPAR-Sepharose precipitates on fibrinogen-derived clot. The class given is biochemical, human. The conditions noted are these: FIG. 10. On the procedure:
as §2, with “The plates were incubated at 37° C. in an incubator for the required time (about 2 hours, see legends to the Figures). Aliquots of 25 μl were removed at the specific time point for counting of the solubilized label in a gamma counter.” left out, “8. […]” for “8.”

Assay [6] has as its system clot prepared from IgG-depleted plasma. The assay is described as follows: Lysis of clots derived from normal or IgG-depleted plasma. The class given is biochemical, human. The conditions noted are these: versus clot from normal plasma, FIG. 13. The protocol:
as §2, with “The plates were incubated at 37° C. in an incubator for the required time (about 2 hours, see legends to the Figures). Aliquots of 25 μl were removed at the specific time point for counting of the solubilized label in a gamma counter.” left out, “8. […]” for “8.”

The subject of another assay is human fibrinogen. Nature of the assay: Fibrinolysis of human fibrinogen clot (not shown). The class given is biochemical. The conditions noted are these: human fibrinogen instead of bovine. On the procedure: as §1
Assay [7] concerns 125I radiolabeled fibrinogen clots. The assay is described as follows: Lysis of 125I radiolabeled fibrinogen clot, activator added directly to the clot, solubilized radioactivity. The conditions noted are these: 2 hrs. It counts as biochemical, human. On the procedure: as §2, with “The plates were incubated at 37° C. in an incubator for the required time (about 2 hours, see legends to the Figures). Aliquots of 25 μl were removed at the specific time point for counting of the solubilized label in a gamma counter.” left out

In another assay the test system is IgG. Nature of the assay: Binding of suPAR to IgG with rabbit serum. The conditions noted are these: rabbit serum instead of human serum, data not shown. The protocol: as §3
Another assay concerns plasminogen. The conditions noted are these: cited from earlier work.
Where [8] appears, read: plasma derived clot covered by serum, FIG. 8.

We go through four substances from patent US6911316B1, “Medical uses of scuPA/suPAR complex” (Thrombotech Ltd., priority 1996, dated 2005).

Several values for one entry are separate records, joined by “and”; a condition that tells them apart may be missing. Equal entries are not always repeated.

PAI-1, sequence (P05121 24-402, species assumed): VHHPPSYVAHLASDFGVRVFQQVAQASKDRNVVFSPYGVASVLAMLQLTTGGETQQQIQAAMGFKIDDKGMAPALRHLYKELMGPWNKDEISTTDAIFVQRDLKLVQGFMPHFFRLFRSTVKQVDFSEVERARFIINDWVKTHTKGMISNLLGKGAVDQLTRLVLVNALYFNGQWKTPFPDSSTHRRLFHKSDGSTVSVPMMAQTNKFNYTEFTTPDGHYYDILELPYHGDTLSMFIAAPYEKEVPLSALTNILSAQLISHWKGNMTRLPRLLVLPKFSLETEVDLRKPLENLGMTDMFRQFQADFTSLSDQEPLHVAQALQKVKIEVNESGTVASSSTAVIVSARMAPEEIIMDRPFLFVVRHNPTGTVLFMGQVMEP

As to “ATF: amino-terminal fragment of urokinase; blocks interaction of scuPA with suPAR [reference compound]”, in the assay with human plasma clot (plasma clot, FIG. 3), the “effect of ATF on the stimulatory effect of suPAR on scuPA-mediated fibrinolysis” value is “almost complete inhibition”. In [1] (bovine fibrinogen clot in serum), the “effect of ATF on the stimulatory effect of suPAR” value is given as “can be abolished”. In addition, in [2] (250 nM ATF, plasma clot covered with serum), the “effect of ATF on scuPA/suPAR mediated fibrinolysis” value is recorded as “significantly inhibited”.
As to “plasminogen: radiolabeled plasminogen used as irrelevant protein control in the protein G precipitation [reference compound]”, in the assay with human IgG, the “precipitation by protein G from native plasma” value is reported as “not precipitated”.
For the substance “scuPA/suPAR complex: complex comprising single chain urokinase type plasminogen activator (scuPA) and soluble urokinase plasminogen activator receptor (suPAR)”, in the assay on human plasma clot (human plasma clot, FIG. 2(A) lane (c), upper and lower panels, listed as scuPA and suPAR), the “size of the lytic area” value was 0.94 cm^2 and 0.90 cm^2. For the same substance, the lytic area in assay [3] (purified bovine fibrinogen clot, FIG. 1(A), two wells each, listed as scuPA and suPAR) is 1.19 cm^2 and 1.05 cm^2. For the same substance, in assay [1] (purified bovine fibrinogen added to serum), the “efficiency of clot cleavage compared with scuPA alone” value was “greater efficiency than by scuPA alone”. Further, the “effect of serum covering the clot on fibrinolysis” value in [4] (clot formed by purified fibrin covered with serum or PBS, FIG. 7) is on record as “stimulated”. Moreover, in [4] (purified fibrin clot covered with serum), the “fibrinolytic activity relative to that obtained on a plasma-derived clot” value is “about 60%”. In addition, in the assay with PAI-1, the “mechanism of PAI-1 inhibition” value is “competitive and reversible”; the “susceptibility of activity to PAI-1” value is on record as “relatively resistant”. For the same substance, in assay [5], the “fibrinolytic activity in the absence of plasma-derived protein(s)” value is reported as “little fibrinolytic activity” and the “scuPA/suPAR-mediated fibrinolytic activity in the presence of plasma-derived protein(s)” value is on record as “significantly increased”. The “scuPA/suPAR mediated fibrinolysis of clot from IgG-depleted plasma” value in assay [6] is “markedly retarded”. Further, the “change of activity when a plasma clot is used instead of a fibrinogen clot” value in assay [2] (FIG. 8) is given as “increase”. In addition, the “effect of PBS instead of serum on the surface of the clot on fibrinolytic activity” value in assay [2] (plasma clot) is recorded as “not affected”. Further, in assay [2] (plasma clot covered with serum, 25 nM activator), the “time to half maximal fibrinolysis” value came to 54 min. Also, in [2] (plasma clot covered with serum, 50% decrease of the concentration of the complex, data not shown), the “time to half maximal fibrinolysis” value came out at 102 min. For the same substance, the “time needed for half maximal fibrinolysis” value in assay [2] (plasma clot covered with serum, doubling the concentration of the complex, data not shown) amounted to 33 min. For the same substance, the “activity on clot formed by clotting of plasma compared with tcuPA” value in assay [2] (setting [8]) is reported as “greater than that of tcuPA”.
As to “suPAR: soluble urokinase plasminogen activator receptor”, in the assay with human plasma clot (plasma clots, FIG. 2), the “enhancement of scuPA-mediated fibrinolysis by addition of suPAR” value was “up to 14 fold”. The “inhibition of scuPA activity in the presence of suPAR” value is reported as “about 40%” in assay [3] (unlabeled bovine fibrinogen clot, equimolar suPAR) and about 50% in [7]. In addition, the “inhibition of scuPA activity by suPAR” value in the assay on human fibrinogen is recorded as “also observed”. Further, the “precipitation by protein G from native plasma” value with human IgG was “immunoprecipitates”. For the same substance, the “precipitation with purified human IgG instead of plasma” value in the assay on human IgG (FIG. 12) is “the same results were obtained”. For the same substance, the “precipitation of suPAR with IgG-depleted plasma” value with human IgG (IgG-depleted plasma versus native plasma) is on record as “less than 25%”. Besides, the “interaction between IgG and suPAR” value with IgG is reported as “no interaction”. Besides, in the assay on plasminogen (plasmin substrate Spect PL), the “effect of suPAR on scuPA activity” value is given as “stimulated”. For the same substance, the “effect of suPAR on scuPA-mediated plasminogen activation” value in the assay with plasminogen (synthetic plasmin substrate S-2251) is “inhibit”. The “effect of suPAR alone on fibrinolysis” value in [2] (plasma clot, FIG. 6) is on record as “depends on the presence of scuPA”. In addition, the “effect of addition of suPAR to tcuPA” value in assay [2] (setting [8]) is “small stimulatory effect”.
